Here are results for two molecules from DBAASP.

≈ marks a conversion by molar mass, not a printed value.

Among the test systems are Kluyveromyces lactis; Staphylococcus aureus MR; Debaryomyces hansenii; Aspergillus fumigatus; Candida parapsilosis; Candida albicans 17-88; Candida glabrata; Staphylococcus aureus; Candida krusei; Enterobacter cloacae; Candida tropicalis; Cutibacterium acnes; Candida albicans; Candida dubliniensis.
Experiment in all cases: ≥ marks a high value that may be exact or a test limit, other limits are often not marked, values filed in µg/mL are converted to µM
For assay [1], the system named is Candida krusei NRRL Y-27803.
Assay [2] relates to Pseudomonas aeruginosa ATCC 19660.
For assay [3], the system named is Mucor circinelloides NRRL 3631.
Assay [4] relates to Aspergillus flavus ATCC MYA-3651.
Assay [5] has as its system Cutibacterium acnes ATCC 6919.
Assay [6] concerns Candida parapsilosis NRRL Y-1761.
Assay [7] has as its system Staphylococcus aureus ATCC 33592.
The subject of assay [8] is Cutibacterium acnes ATCC 11827.
The test system of assay [9] is Fusarium solani NRRL 28548.
Assay [10] has as its system Candida albicans NRRL Y-326.
For assay [11], the system named is Pseudomonas aeruginosa ATCC 27853.
Assay [12] relates to Staphylococcus epidermidis ATCC 51625.
Assay [13] concerns Klebsiella pneumoniae ATCC 10031.
The subject of assay [14] is Lichtheimia corymbifera NRRL 6251.
Assay [15] deals with Acinetobacter baumannii ATCC 17978.
Assay [16] deals with Staphylococcus aureus CMCC 26003.
Assay [17] relates to Escherichia coli CMCC 44102.
The test system of assay [18] is Staphylococcus epidermidis ATCC 12228.

As usually defined, the MIC is the least concentration at which growth counts as inhibited. Read a high MIC as weaker potency. Consider `CC[C@H](C)[C@@H]1NC(=O)CNC(=O)[C@H](CCCCN)NC(=O)[C@H](Cc2ccc(O)cc2)NC(=O)[C@@H]2CSSC[C@H](NC1=O)C(=O)N[C@@H](Cc1ccc(O)cc1)C(=O)N[C@@H](CCCCN)C(=O)N[C@@H](CCCCN)C(=O)N[C@H](C(=O)N[C@@H](CCCCN)C(N)=O)CSSC[C@H](NC(=O)[C@H](Cc1c[nH]c3ccccc13)NC(=O)[C@@H](N)CCCN=C(N)N)C(=O)N[C@@H](Cc1ccccc1)C(=O)N[C@@H](CCCCN)C(=O)N[C@@H](C(C)C)C(=O)N2` [RWCFKVCYKGICYKKCK], for which the minimal inhibitory concentration (MIC) against Kluyveromyces lactis turned out to be 1.9 µM (≈ 4.09 µg/mL); in assay [1], 10.5 µM (≈ 22.6 µg/mL); in the assay with Staphylococcus aureus MR, 2.62 µM (≈ 5.64 µg/mL); in assay [2] it was 3.71 µM (≈ 7.98 µg/mL); in [3], 29.7 µM (≈ 63.9 µg/mL); with Debaryomyces hansenii, 7.4 µM (≈ 15.9 µg/mL). In addition, the minimum inhibitory concentration (MIC) is 29.7 µM (≈ 63.9 µg/mL) in assay [4]; 1.85 µM (≈ 3.99 µg/mL) in assay [5]; 29.7 µM (≈ 63.9 µg/mL) against Aspergillus fumigatus; 15 µM (≈ 32.3 µg/mL) in the assay with Candida parapsilosis; 7.4 µM (≈ 15.9 µg/mL) with Candida albicans 17-88; 10.5 µM (≈ 22.7 µg/mL) with Candida glabrata. For the same molecule, the minimum inhibitory concentration (MIC) against Staphylococcus aureus came out at 5.25 µM (≈ 11.3 µg/mL); in assay [6], 14.8 µM (≈ 31.9 µg/mL); with Candida krusei, 5.23 µM (≈ 11.3 µg/mL); in assay [7], 1.85 µM (≈ 3.99 µg/mL); with Enterobacter cloacae, 3.71 µM (≈ 7.98 µg/mL); in assay [8], 3.71 µM (≈ 7.98 µg/mL). For the same molecule, the MIC stood at 1.33 µM (≈ 2.86 µg/mL) against Candida tropicalis; 1.31 µM (≈ 2.82 µg/mL) against Cutibacterium acnes; 0.927 µM (≈ 2 µg/mL) in assay [9]; 10.5 µM (≈ 22.7 µg/mL) with Candida albicans; 3.7 µM (≈ 7.96 µg/mL) in the assay on Candida dubliniensis; 5.25 µM (≈ 11.3 µg/mL) in assay [10]. For the same molecule, the minimal inhibitory concentration (MIC) in [11] was 3.71 µM (≈ 7.98 µg/mL); in assay [12], 1.85 µM (≈ 3.99 µg/mL); in [13], 3.71 µM (≈ 7.98 µg/mL); in assay [14] it was 0.927 µM (≈ 2 µg/mL); in assay [15] it was 3.71 µM (≈ 7.98 µg/mL).

As to `CC[C@H](C)[C@H](NC(=O)[C@H](CCCN=C(N)N)NC(=O)[C@H](CCCN=C(N)N)NC(=O)[C@H](CC(C)C)NC(=O)[C@H](Cc1ccccc1)NC(=O)[C@@H]1CCCN1C(=O)[C@H](CCCN=C(N)N)NC(=O)[C@H](CCSC)NC(=O)[C@@H](NC(=O)[C@H](CCCCN)NC(=O)[C@H](CCCCN)NC(=O)[C@H](CS)NC(=O)[C@@H](NC(=O)CNC(=O)[C@@H]1CCCN1C(=O)[C@H](CC(C)C)NC(=O)[C@@H](NC(=O)[C@@H](N)CCCCN)[C@@H](C)CC)C(C)C)[C@@H](C)CC)C(=O)N[C@@H](CO)C(=O)N[C@@H](CCCCN)C(=O)N[C@@H](CC(=O)O)C(=O)N[C@H](C(=O)N[C@@H](CC(C)C)C(=O)N[C@H](C(=O)NCC(=O)N[C@@H](CCCCN)C(=O)N[C@@H](CCCCN)C(N)=O)[C@@H](C)O)[C@@H](C)CC` [KILPGVCKKIMRPFLRRISKDILTGKK], the MIC in assay [16] was found to be 8 µM (≈ 25.1 µg/mL); in assay [17], 8 µM (≈ 25.1 µg/mL); in [11] it was 32 µM (≈ 100 µg/mL); in [18], 8 µM (≈ 25.1 µg/mL).
